{
  "source": "patent US20030138430A1",
  "about": "“Pharmaceutical comprising an agent that blocks the cell cycle and an antibody” (priority 2002, published 2003)",
  "molecules": {"B1": {"name": "interferon-gamma: interferon-gamma (protein, UniProt P01579 24-161, looked up)", "Interferon gamma": "QDPYVKEAENLKKYFNAGHSDVADNGTLFLGILKNWKEESDRKIMQSQIVSFYFKLFKNFKDDQSIQKSVETIKEDMNVKFFNSNKKKRDDFEKLTNYSVTDLNVQRKAIHELIQVMAELSPAAKTGKRKRSQMLFRG"}},
  "key": {"[1]": {"test_system": "Ep-CAM antigen on HT-29 colon adenocarcinoma cells", "experiment": "Internalization of lutetium-177-labeled GW1208W95 (anti-Ep-CAM)", "assay_type": "cell-based, human", "settings": "HT-29 cells pretreated with drug; 37° C", "procedure": "Internalization of Lutetium-177-labeled GW1208W95 (anti-Ep-CAM) by Human Colon Adenocarcinoma Cells. Colon adenocarcinoma cells (HT-29) were plated in 6-well plates and cultured. Subconfluent cells were exposed to cytotoxic drugs for up to 24 hours. Cells were washed and cultured for another 2-5 days. The plates were put on ice (0° C.) for minimum of 60 minutes and lutetium-177-labeled coupled to 6,6″-bis {N,N,N″,N″-tetra(carboxymethyl)aminomethyl)-4′-(3-bromoacetamido-4-methoxyphenyl-2,2′:6,2″-terpyridine) at 0.5-1.0 mCi/mg was added at a final concentration of 6.7 nM. Cells were incubated at 0° C. for 3.5 hr. Following incubation at 0° C., the cells were washed with 2.5 mL of ice-cold phosphate-buffered saline with human serum albumin (1%) (PBS-HSA). Then 2.5 mL pre-warmed media was added and the labeled cells were incubated at 37° C. At the indicated time points, cells were washed twice with 2.5 mL PBS-HSA. Cells were incubated for 5 minutes at room temperature with 2.5 mL 0.1 M NaCl in 0.05 M glycine (pH 2.8) to detemine labeled antibody bound to the target surface antigen. The incubation was repeated and counts pooled. Internalized counts were determined by solubilization of the cell layer with 1.0 mL of 1 N NaOH. Samples were counted using a Packard CliniGamma 5000. Data was normalized to cell count for each well.\nColon adenocarcinoma cells (HT-29) in culture were pretreated with chemotherapeutic agents as described previously for the evaluation of cell cycle and cell surface antigen quantitation. […] Cells were pulse-labeled with ^177Lu-GW1208W95 (6.7 nM @ 0.5-1.0 mCi/mg protein) for a minimum of 60 minutes at 0° C. on ice to inhibit surface antigen internalization. After washing away of excess radiolabeled antibody fresh media was added, and the cells were incubated at 37° C. for time indicated. Surface-bound antibody was eluted with isotonic buffer and both acid-labile (surface-bound) and acid-stable (internalized) radioactivity were quantitated."}, "[2]": {"test_system": "erbB2 receptor on NHBE and HMEC normal epithelial cells", "experiment": "Quantitation of cell surface erbB2 presentation on normal epithelial cells", "assay_type": "cell-based, human", "settings": "compared with untreated controls", "method": "Cells were exposed to Gemzar (gemcitabine (GMZ), Lilly, Indianapolis, Ind.) or 5FU (Adrucil®, Pharmacia & Upjohn) for 24 hours. Cells were exposed to interferons continuously for 2-5 days. Following drug exposure, cells were washed and cultured for another 2-5 days prior to analysis for antigen presentation and cell cycle status, except for those treated with interferons. Cells were dissociated from the culture plates using a collagenase cocktail (1:1:1,Types I, II, and IV, 0.1% (wt/vol), Gibco) in calcium- and magnesium-free phosphate-buffered saline. Cells were stained and cytometric data was collected as described in Example 1, and antigen expression was quantified as described in Example 2."}, "[3]": {"test_system": "erbB2 receptor on MCF-7 and MDA-MB-468 breast adenocarcinoma cells", "experiment": "Quantitation of cell surface erbB2 presentation", "assay_type": "cell-based", "settings": "for cell surface erbB2 presentation: compared with untreated controls (Example 2); for cell surface presentation of erbB2 receptor: Example 3", "method": "(§1) Populations of adenocarcinoma cells were evaluated for distribution in G0/G1, S and G2/M phases of the cell cycle as well as for erbB2/neu presentation. Cells were dissociated from the culture plates using Versene (Gibco) and resuspended in calcium- and magnesium-free phosphate-buffered saline containing bovine serum albumin and sodium azide. Exactly 2×10^5 cells were stained with R-Phycoerythrin-conjugated-anti-HER-2/neu murine IgG (Cat. 340552, Becton Dickinson) in buffer containing 100 μg/mL mouse IgG (Cat. 15381, Sigma). Cells were fixed with FACSLyse (Cat. 92-002, Becton Dickinson) followed by a short post-fix with ethanol at −20° C. Cellular DNA was stained with DAPI (Cat. D1306, Molecular Probes) in buffer containing RNase A (Sigma).\nSample data were collected on a FACStar^PLUS® flow cytometer (Becton Dickinson) equipped with a 488 nm argon ion laser in position 1 and a 350 nm argon ion laser in position 2. For each cell analyzed, data was collected on signal pulses from linear forward scatter height and width, linear area and width of DAPI fluorescence for DNA, and logarithmic fluorescence height of the HER-2/neu antibody probe. The resulting listmode files were processed using Winlist 3D© software (Verity Software House, Topsham, Me.). […] The remaining cells were analyzed for cell cycle position by manual gating and HER-2/neu surface antigen density. Using the bead standard system described in Example 2, values of mean fluorescence intensity for HER-2/neu and other antigens were converted to values of “Antibodies Bound per Cell” (ABC) during analysis.\nCells were exposed to Gemzar (gemcitabine (GMZ), Lilly, Indianapolis, Ind.) for 24 hours. […] Following drug exposure, cells were washed and cultured for another 2-5 days prior to analysis for antigen presentation and cell cycle status, except for those treated with BB-94. Cells were dissociated from the culture plates using Versene (Gibco) and resuspended in calcium- and magnesium-free phosphatebuffered saline containing bovine serum albumin and sodium azide. Exactly 2×10^5 cells were stained as described in Example 1. Antigen presentation was quantified against calibrated bead standards calibrated by the vendor for murine IgG binding capacity (Quantum Simply Cellular Bead, Cat. QSC-100, Sigma); calibration beads were stained with R-phycoerythrin-conjugated anti-HER-2/neu murine IgG. Plots of fluorescence intensity against bead IgG binding capacity were constructed, and molecules of IgG bound per cell was read from the fluorescence intensity of the stained cells.\nCells were exposed to interferons continuously for 2-5 days. […] Exactly 2×10^5 cells were stained as described in Example 1, and antigen expression was quantified as described in Example 2."}, "[4]": {"test_system": "HT-29 colon adenocarcinoma cells", "experiment": "Cell cycle analysis by flow cytometry (propidium iodide)", "assay_type": "cell-based, human", "settings": "HT-29 cells; media control 6.3%", "method": "(§2) FIG. 7. Cell Cycle Analysis and Quantitation of Antigen Expression. Populations of adenocarcinoma cells were evaluated for distribution in G0/G1, S, and G2/M phases of the cell cycle as well as Ep-CAM presentation on the cell surface. […] Cells were exposed to 5-fluorouracil (5-FU) for 24 hours, and to the interferons continuously for 2-5 days. Cells were washed and cultured for another 2 days prior to analysis for antigen presentation except for cells exposed to interferons. Cells were lightly trypsinized and mechanically detached from the culture flasks and resuspended in calcium- and magnesium-free phosphate-buffered saline containing bovine serum albumin and sodium azide. Exactly 2×10^5 cells were stained with FITC-323/A3 murine IgG antibody or FITC-murine IgG (control). Cells were fixed with cold paraformaldehyde, then permeabilized for DNA staining with Tween-20. Cellular DNA was stained with a propidium iodide buffer containing RNAse A. Listmode data were acquired using Lysis II software on a FACScan flow cytometer (Becton Dickinson Immunocytometry Systems) equipped with a 488 nm laser. Cell cycle analysis was done using CellFit software for SOBR modeling of the histograms (where possible, otherwise manual estimations were employed) on Cell-Fit. Ep-CAM antigen presentation was quantitated by comparison of the mean fluorescence intensity of fluorescein-conjugated 323/A3 bound to cultured cells with the fluorescence intensity of calibrated microbead standards and evaluated separately using histogram analysis in WinList (Verity Software House). Standard curves of calibration bead concentration versus fluorescence intensity were constructed in SoftMax Pro (Molecular Devices, Inc.), and fluorescence intensity of stained cells was used to calculate the number of antigen molecules per cell for the population.\n(§3) Adenocarcinoma cells (HT-29) were exposed to Navelbine or Taxol or combinations of drugs as indicated in FIG. 7 and the cells were evaluated for cell surface Ep-CAM presentation in addition to cell cycle distribution. […]"}, "[5]": {"test_system": "Ep-CAM antigen on HT-29 colon adenocarcinoma cells", "experiment": "Quantitation of cell surface Ep-CAM antigen with FITC-323/A3", "assay_type": "cell-based, human", "settings": "HT-29 cells after drug exposure, vs media control", "method": "as §2, §3"}, "[6]": {"test_system": "erbB2 receptor on BT-474 breast and NCI H322 lung adenocarcinoma cells", "experiment": "Quantitation of cell surface erbB2 presentation, high erbB2 cell lines", "assay_type": "cell-based", "settings": "BT-474 and H322", "method": "(§4) Cells were dissociated from the culture plates using Versene (Gibco) and resuspended in calcium- and magnesium-free phosphate-buffered saline containing bovine serum albumin and sodium azide. Exactly 2×10^5 cells were stained with R-Phycoerythrin-conjugated-anti-HER-2/neu murine IgG (Cat. 340552, Becton Dickinson) in buffer containing 100 μg/mL mouse IgG (Cat. 15381, Sigma). Cells were fixed with […]. 92-002, Becton Dickinson) followed by a short post-fix with ethanol at -20° C. Cellular DNA was stained with DAPI (Cat. D1306, Molecular Probes) in buffer containing RNase A (Sigma). […] For each cell analyzed, data was collected on signal pulses from linear forward scatter height and width, linear area and width of DAPI fluorescence for DNA, and logarithmic fluorescence height of the HER-2/neu antibody probe. […] The remaining cells were analyzed for cell cycle position by manual gating and HER-2/neu surface antigen density. Using the bead standard system described in Example 2, values of mean fluorescence intensity for HER-2/neu and other antigens were converted to values of “Antibodies Bound per Cell” (ABC) during analysis. […] Antigen presentation was quantified against calibrated bead standards calibrated by the vendor for murine IgG binding capacity (Quantum Simply Cellular Bead, Cat. QSC-100, Sigma); calibration beads were stained with R-phycoerythrin-conjugated anti-HER-2/neu murine IgG. […]"}, "[7]": {"test_system": "SK-BR-3, MCF-7 and BT-474 breast adenocarcinoma cell lines", "assay_type": "cell-based", "method": "Cells were exposed to Gemzar (gemcitabine (GMZ), Lilly, Indianapolis, Ind.) for 24 hours. […] Cells were exposed to interferons continuously for 2-5 days."}, "[8]": {"test_system": "MCF-7 and MDA-MB-468 breast adenocarcinoma cells", "experiment": "Cell cycle analysis by flow cytometry (DAPI)", "assay_type": "cell-based", "settings": "Example 3", "method": "as §1, with “Cellular DNA was stained with DAPI (Cat. D1306, Molecular Probes) in buffer containing RNase A (Sigma).” left out\nSample data were collected on a FACStar^PLUS® flow cytometer (Becton Dickinson) equipped with a 488 nm argon ion laser in position 1 and a 350 nm argon ion laser in position 2. For each cell analyzed, data was collected on signal pulses from linear forward scatter height and width, linear area and width of DAPI fluorescence for DNA, and logarithmic fluorescence height of the HER-2/neu antibody probe. […] The remaining cells were analyzed for cell cycle position by manual gating and HER-2/neu surface antigen density. Using the bead standard system described in Example 2, values of mean fluorescence intensity for HER-2/neu and other antigens were converted to values of “Antibodies Bound per Cell” (ABC) during analysis. […]"}, "[9]": {"test_system": "BT-474 breast and NCI H322 lung adenocarcinoma cells", "experiment": "Cell cycle analysis by flow cytometry (DAPI), high erbB2 cell lines", "assay_type": "cell-based", "settings": "BT-474 and H322; BB-94 10 μM alone", "method": "as §4"}, "[10]": {"test_system": "HT-29 colon adenocarcinoma tumors", "experiment": "Targeting of 177Lu-labelled antibody to Ep-CAM-positive HT-29 xenografts", "assay_type": "in vivo, mouse", "procedure": "Human colon adenocarcinoma (HT-29) tumors were initiated by subcutaneous implantation into female CD-1 nude mice (Charles River). When the tumors reached 200-300 mg, animals were divided into groups of five. […] A control group was dosed with 5-fluorouracil (5-FU) intraperitoneally at 20 mg/kg on days 1 and 5. […] Blood, spleen, liver, lung, kidney, femur, and tumor were harvested on days 1, 3 and 5 post-antibody-dose for direct gamma counting (Packard)."}, "[11]": {"experiment": "Navelbine tolerability in CD-1 nude mice", "settings": "intravenous, days 1 and 5, CD-1 nude mice", "procedure": "Human colon adenocarcinoma (HT-29) tumors were initiated by subcutaneous implantation into female CD-1 nude mice (Charles River). When the tumors reached 200-300 mg, animals were divided into groups of five. Navelbine was injected intravenously at a dosage of 28 mg/kg in vehicle (5% dextrose in distilled water) on days 1 and 5."}, "[12]": {"test_system": "PC-3 prostatic adenocarcinoma cells", "settings": "PC-3 cells; Navelbine 30 nM alone or with cisplatin; GW3622W94; human PBMC effectors 50:1; 6 hours", "procedure": "Ep-CAM Antigen Expression and ADCC of Prostatic Adenocarcinoma in Culture. Biological Effectiveness in vitro as Measured by Antibody-dependent Cellular Cytotoxicity. […] Target cells were cultured overnight with 100 μCi Na2^51CrO4 (Amersham) in media, and then washed 3 times with RPMI-1640 containing 2 mM L-glutamine, 50 μg/mL gentamicin, and 10% heat-inactivated FBS. […] Spontaneous lysis wells (CPMspontaneous) received media (no effectors) and total lysis wells (CPMTotal) received Triton-X-100. Cultures were incubated for 6 hours at 37° C./5% CO2, then supernatants were harvested using Skatron filter frames (Skatron Instruments, Sterling Va.). Radioactivity was counted in a gamma counter and the percentage specific release, corrected for spontaneous lysis, was calculated."}},
  "note": "Where a name gives a salt, the structure may show the parent alone.",
  "data": [
    {"molecule": "CC(=O)O[C@H]1C(=O)[C@@]2(C)[C@H]([C@H](OC(=O)c3ccccc3)[C@]3(O)C[C@H](OC(=O)[C@H](O)[C@@H](NC(=O)c4ccccc4)c4ccccc4)C(C)=C1C3(C)C)[C@]1(OC(C)=O)CO[C@@H]1C[C@@H]2O", "note": "[Taxol, 5β, 20 epoxy-1,2α,4,7β,10β,13α-hexahydroxytax-11-en-9-one 4,10-diacetate 2-benzoate 13-ester with (2R, 3S)-N-benzoyl-3-phenylisoserine]", "values": [
      {"measurement": "internalization of the radiolabelled antibody 177Lu-GW1208W95", "setting": "[1]", "value": "significantly inhibited internalization"},
      {"measurement": "cell surface erbB2 presentation", "setting": "[2]", "value": "no significant increases"},
      {"measurement": "cell surface erbB2 presentation", "setting": "[3]", "value": "significant increases"}
    ]},
    {"molecule": "O=c1[nH]cc(F)c(=O)[nH]1", "note": "[5-FU, 5-fluorouracil]", "values": [
      {"measurement": "internalization of the radiolabelled antibody 177Lu-GW1208W95", "setting": "[1]", "value": "extensive internalization"},
      {"measurement": "cells in S and G2/M phases combined", "setting": "[4]", "value": 7.9, "unit": "%"},
      {"measurement": "cell surface Ep-CAM expression", "setting": "[5]", "value": "not significantly increased"}
    ]},
    {"molecule": "Nc1ccn([C@@H]2O[C@H](CO)[C@@H](O)C2(F)F)c(=O)n1", "note": "[Gemzar, gemcitabine]", "values": [
      {"measurement": "cell surface erbB2 presentation", "setting": "[6]", "value": "significant increases"},
      {"measurement": "toxicity to cell lines based on the 18 s values", "setting": "[7]", "value": "toxic"}
    ]},
    {"molecule": "interferon-gamma: interferon-gamma", "values": [
      {"measurement": "cell cycle distribution", "setting": "[8]", "value": "not significantly different from media control cells"},
      {"measurement": "cells in S and G2/M phases combined", "setting": "[4]", "value": 11.5, "unit": "%"},
      {"measurement": "cell surface Ep-CAM expression", "setting": "[5]", "value": "not significantly increased"},
      {"measurement": "cell surface presentation of erbB2 receptor", "setting": "[3]", "value": "not significantly increased"}
    ]},
    {"molecule": "CNC(=O)[C@H](Cc1ccccc1)NC(=O)[C@H](CC(C)C)[C@H](CSc1cccs1)C(=O)NO", "note": "[BB-94]", "values": [
      {"measurement": "cell cycle distribution", "setting": "[9]", "value": "did not affect cell cycle distribution"},
      {"measurement": "cell surface erbB2 presentation", "setting": "[6]", "value": "increase in erbB2 presentation"}
    ]},
    {"molecule": "CCC1=C[C@@H]2CN(C1)Cc1c([nH]c3ccccc13)[C@@](C(=O)OC)(c1cc3c(cc1OC)N(C)[C@H]1[C@@](O)(C(=O)OC)[C@H](OC(C)=O)[C@]4(CC)C=CCN5CC[C@]31[C@@H]54)C2", "note": "(relative stereo) [Navelbine, 3′, 4′-didehydro-4′-deoxy-C′-norvincaleukoblastine [R-(R*,R*)-2,3-dihydroxybutanedioate (1:2)(salt)]]", "values": [
      {"measurement": "tumor regression", "setting": "[10]; Navelbine 28 mg/kg i.v. days 1 and 5, HT-29 xenografts", "value": "minimal tumor regression"},
      {"measurement": "increase in tumor targeting of 177Lu-labelled antibody", "setting": "[10]; Navelbine pretreatment 28 mg/kg i.v. days 1 and 5, relative to vehicle- or 5-FU-treated animals", "value": 2, "unit": "fold"},
      {"measurement": "LD10", "setting": "[11]", "value": "~28", "unit": "mg/kg"},
      {"measurement": "internalization of the radiolabelled antibody 177Lu-GW1208W95", "setting": "[1]", "value": "significantly inhibited internalization"},
      {"measurement": "cell surface erbB2 presentation", "setting": "[2]", "value": "no significant increases"},
      {"measurement": "ADCC lysis of antibody-coated tumor target cells after drug pre-treatment", "setting": "[12]", "value": "improved"},
      {"measurement": "cell surface erbB2 presentation", "setting": "[3]", "value": "significant increases"}
    ]},
    {"molecule": "interferon-alpha", "values": [
      {"measurement": "cell cycle distribution", "setting": "[8]", "value": "not significantly different from media control cells"},
      {"measurement": "cells in S and G2/M phases combined", "setting": "[4]", "value": 12, "unit": "%"},
      {"measurement": "cell surface Ep-CAM expression", "setting": "[5]", "value": "not significantly increased"},
      {"measurement": "cell surface presentation of erbB2 receptor", "setting": "[3]", "value": "not significantly increased"}
    ]},
    {"molecule": "B1", "values": [
      {"measurement": "toxicity to cell lines based on the 18 s values", "setting": "[7]", "value": "toxic"}
    ]}
  ]
}
